Data from patent publication US10000473B2, “Indazole derivatives useful as glucagon receptor antagonists” (Janssen Pharmaceutica NV, priority 2016, dated 2018).

Target: T1, human GCGR (Homo sapiens, UniProt P47871)
T1 construct: expressed in transfected cells; host or cells: HEK293 (hGluc-1HEK), pcDNA3.1, G418 selection
Assay: Cellular functional assay, cAMP readout (glucagon-stimulated cAMP, LANCE TR-FRET)
Type: cell-based
Conditions: HEK293 cells stably expressing full-length human GCGR; glucagon 100 pM; IC50 converted to Ki; read-out: Inhibition of cAMP Ki

T1 sequence (P47871 26-477): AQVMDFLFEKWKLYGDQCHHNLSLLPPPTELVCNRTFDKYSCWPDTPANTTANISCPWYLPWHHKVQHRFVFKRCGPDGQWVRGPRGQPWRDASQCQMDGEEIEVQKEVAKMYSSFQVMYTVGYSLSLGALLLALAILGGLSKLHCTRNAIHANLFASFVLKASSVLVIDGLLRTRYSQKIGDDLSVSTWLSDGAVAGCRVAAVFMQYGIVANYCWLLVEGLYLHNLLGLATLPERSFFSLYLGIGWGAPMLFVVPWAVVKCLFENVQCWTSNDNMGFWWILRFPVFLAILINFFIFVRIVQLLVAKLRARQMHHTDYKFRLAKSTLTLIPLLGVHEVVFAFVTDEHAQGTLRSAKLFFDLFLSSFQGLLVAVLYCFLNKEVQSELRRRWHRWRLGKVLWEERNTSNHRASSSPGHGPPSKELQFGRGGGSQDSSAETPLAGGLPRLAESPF

Row | SMILES | Ki [nM]
1 | O=C(O)CCNC(=O)c1ccc(C(CCC(F)(F)F)n2ncc3cc(-c4ccc(F)cc4Cl)ccc32)cc1 (stereo not shown) [Compound #223, 3-(4-(1-(5-(2-Chloro-4-fluorophenyl)-1H-indazol-1-yl)-4,4,4-trifluorobutyl)benzamido)propanoic acid] | 950
2 | O=C(O)CCNC(=O)c1ccc(C(CCC(F)(F)F)n2cc3cc(-c4ccc(Cl)cc4Cl)ccc3n2)cc1 (stereo not shown) [Compound #224, 3-[[4-[1-[5-(2,4-Dichlorophenyl)indazol-2-yl]-4,4,4-trifluorobutyl]benzoyl]amino]propanoic acid] | 110
3 | CC(C)CC(c1ccc(C(=O)NCCC(=O)O)cc1)n1cc2cc(-c3ccc(C(F)(F)F)cc3Cl)ccc2n1 (stereo not shown) [Compound #225, 3-(4-(1-(5-(2-Chloro-4-(trifluoromethyl)phenyl)-2H-indazol-2-yl)-3-methylbutyl)benzamido)propanoic acid] | 150
4 | CC(C)CC(c1ccc(C(=O)NCCC(=O)O)cc1)n1cc2cc(-c3ccc(Cl)cc3Cl)ccc2n1 (stereo not shown) [Compound #226, 3-(4-(1-(5-(2,4-Dichlorophenyl)-2H-indazol-2-yl)-3-methylbutyl)benzamido)propanoic acid] | 242
5 | CC(C)CCC(c1ccc(C(=O)NCCC(=O)O)cc1)n1cc2cc(-c3ccc(C(C)(C)C)cc3)ccc2n1 (stereo not shown) [Compound #227, 3-(4-(1-(5-(4-(tert-Butyl)phenyl)-2H-indazol-2-yl)-4-methylpentyl)benzamido)propanoic acid] | 330
6 | CC(C)(C)c1ccc(-c2ccc3nn(C(CC4CCCCC4)c4ccc(C(=O)NCCC(=O)O)cc4)cc3c2)cc1 (stereo not shown) [Compound #228, 3-(4-(1-(5-(4-(tert-Butyl)phenyl)-2H-indazol-2-yl)-2-cyclohexylethyl)benzamido)propanoic acid] | 130
7 | Cc1cc2c(cnn2[C@H](CC(C)C)c2ccc(C(=O)NCCC(=O)O)cc2)cc1-c1ccc(C(F)(F)F)cc1 [Compound #229, 3-[[4-[(1R)-3-Methyl-1-[6-methyl-5-[4-(trifluoromethyl)phenyl]indazol-1-yl]butyl]benzoyl]amino]propanoic acid] | 1550
8 | COc1c(-c2ccc(C(F)(F)F)cc2C)ccc2nn(C(CC(C)C)c3ccc(C(=O)NCCC(=O)O)cc3)cc12 (stereo not shown) [Compound #233, 3-(4-(1-(4-Methoxy-5-(2-methyl-4-(trifluoromethyl)phenyl)-2H-indazol-2-yl)-3-methylbutyl)benz-amido)propanoic acid] | 24
9 | COc1c(-c2ccc(C(F)(F)F)cc2C)ccc2nn(C(CC(C)C)c3ccc(C(=O)NCCC(=O)O)nc3)cc12 (stereo not shown) [Compound #236, 3-(5-(1-(4-Methoxy-5-(2-methyl-4-(trifluoromethyl)phenyl)-2H-indazol-2-yl)-3-methylbutyl)picolinamido)propanoic acid] | 12
10 | O=C(O)CCNC(=O)c1ccc(C(CCC2CCC2)n2ncc3cc(-c4ccc(C(F)(F)F)cc4)ccc32)cc1 (stereo not shown) [Compound #239, 3-(4-(3-Cyclobutyl-1-(5-(4-(trifluoromethyl)phenyl)-1H-indazol-1-yl)propyl)benzamido)propanoic acid] | 260
11 | Cc1c(-c2ccc(C(F)(F)F)cc2Cl)ccc2c1cnn2[C@@H](CC(C)C)c1ccc(C(=O)NCCC(=O)O)cc1 [Compound #241, (S)-3-(4-(1-(5-(2-Chloro-4-(trifluoromethyl)phenyl)-4-methyl-1H-indazol-1-yl)-3-methylbutyl)benzamido)propanoic acid] | 42
12 | Cc1cc2nn(C(CC(C)C)c3ccc(C(=O)NCCC(=O)O)nc3)cc2cc1-c1ccc(C(F)(F)F)cc1Cl (stereo not shown) [Compound #242, 3-[[5-[1-[5-[2-Chloro-4-(trifluoromethyl)phenyl]-6-methyl-indazol-2-yl]-3-methyl-butyl]pridine-2-carbonyl]amino]propanoic acid] | 65
13 | Cc1cc(C(F)(F)F)ccc1-c1ccc2nn(C(CC(C)C)c3ccc(C(=O)NCCC(=O)O)nc3)cc2c1C(F)(F)F (stereo not shown) [Compound #246, 3-(5-(3-Methyl-1-(5-(2-methyl-4-(trifluoromethyl)phenyl)-4-(trifluoromethyl)-2H-indazol-2-yl)butyl)picolinamido)propanoic acid] | > 5200
14 | COc1c(-c2ccc(C(F)(F)F)cc2Cl)ccc2c1cnn2C(CC(C)C)c1ccc(C(=O)NCCC(=O)O)nc1 (stereo not shown) [Compound #250, 3-(5-(1-(5-(2-Chloro-4-(trifluoromethyl)phenyl)-4-methoxy-1H-indazol-1-yl)-3-methylbutyl)picolinamido)propanoic acid] | 55
15 | Cc1cc(Cl)ccc1-c1ccc2nn(C(CC(C)C)c3ccc(C(=O)NCCC(=O)O)nc3)cc2c1 (stereo not shown) [Compound #252, 3-(5-(1-(5-(4-Chloro-2-methylphenyl)-2H-indazol-2-yl)-3-methylbutyl)picolinamido)propanoic acid] | 271
16 | CC(C)(F)CC(c1ccc(C(=O)NCCC(=O)O)cc1)n1cc2cc(-c3ccc(C(F)(F)F)cc3)ccc2n1 (stereo not shown) [Compound #256, 3-(4-(3-Fluoro-3-methyl-1-(5-(4-(trifluoromethyl)phenyl)-2H-indazol-2-yl)butyl)benzamido)propanoic acid] | 200
17 | Cc1cc(C(F)(F)F)ccc1-c1ccc2c(cnn2C(CC(C)C)c2ccc(C(=O)NCCC(=O)O)nc2)c1C (stereo not shown) [Compound #258, 3-(5-(3-Methyl-1-(4-methyl-5-(2-methyl-4-(trifluoromethyl)phenyl)-1H-indazol-1-yl)butyl)picolinamido)propanoic acid] | 65
18 | Cc1cc2c(cnn2C(CC(C)C)c2ccc(C(=O)NCCC(=O)O)nc2)cc1-c1ccc(C(F)(F)F)cc1Cl (stereo not shown) [Compound #259, 3-[[5-[1-[5-[2-Chloro-4-(trifluoromethyl)phenyl]-6-methyl-indazol-1-yl]-3-methyl-butyl]pridine-2-carbonyl]amino]propanoic acid] | 37
19 | CC(C)CC(c1ccc(C(=O)NCCC(=O)O)nc1)n1cc2cc(-c3cc4ccccc4o3)ccc2n1 (stereo not shown) [Compound #260, 3-(5-(1-(5-(Benzofuran-2-yl)-2H-indazol-2-yl)-3-methylbutyl)picolinamido)propanoic acid] | 135
20 | Cc1cc(C(F)(F)F)ccc1-c1cc2cnn(C(CC(C)C)c3ccc(C(=O)NCCC(=O)O)cc3)c2cc1Cl (stereo not shown) [Compound #261, 3-[[4-[1-[6-Chloro-5-[2-methyl-4-(trifluoromethyl)phenyl]indazol-1-yl]-3-methyl-butyl]benzoyl]amino]propanoic acid] | 105
21 | CC(C)CCC(c1ccc(C(=O)NCCC(=O)O)cc1)n1cc2cc(-c3ccc(C(F)(F)F)cc3)ccc2n1 (stereo not shown) [compound 27] | 105
22 | Cc1ccc2sc(-c3ccc4nn(C(CC(C)C)c5ccc(C(=O)NCCC(=O)O)cc5)cc4c3)cc2c1 (stereo not shown) [compound 28] | 260
23 | O=C(O)CCNC(=O)c1ccc(C(CC2CC2)n2ncc3cc(-c4ccc(C(F)(F)F)cc4)ccc32)cc1 (stereo not shown) [compound 32] | 330

Row | SMILES | Ki [nM]
24 | CC(C)CC(c1ccc(C(=O)NCCC(=O)O)cc1)n1ncc2cc(-c3cnc4ccccc4c3)ccc21 (stereo not shown) [compound 46] | 750
25 | CC(C)CC(c1ccc(C(=O)NCCC(=O)O)nc1)n1ncc2cc(-c3cc4ccccc4s3)ccc21 (stereo not shown) [compound 48] | 470
26 | CC(C)CC(c1ccc(C(=O)NCCC(=O)O)cc1)n1cc2cc(-c3ccsc3)ccc2n1 (stereo not shown) [compound 51] | 750
27 | CC(C)CC(c1ccc(C(=O)NCCC(=O)O)cc1)n1cc2cc(-c3cc4ccc(F)cc4s3)ccc2n1 (stereo not shown) [compound 57] | 170
28 | CC(C)CCC(c1ccc(C(=O)NCCC(=O)O)cc1)n1ncc2cc(-c3ccc(C(F)(F)F)cc3)ccc21 (stereo not shown) [compound 59] | 155
29 | CCCC(c1ccc(C(=O)NCCC(=O)O)cc1)n1ncc2cc(-c3ccc(C(F)(F)F)cc3)ccc21 (stereo not shown) [compound 60] | 300
30 | CC(C)(C)CC(c1ccc(C(=O)NCCC(=O)O)cc1)n1cc2cc(-c3ccc(C(F)(F)F)cc3)ccc2n1 (stereo not shown) [compound 61] | 52
31 | Cc1ccc2cc(-c3ccc4c(cnn4C(CC(C)C)c4ccc(C(=O)NCCC(=O)O)cc4)c3)sc2c1 (stereo not shown) [compound 62] | 230
32 | O=C(O)CCNC(=O)c1ccc(C(CCC(F)(F)C(F)(F)F)n2cc3cc(-c4ccc(C(F)(F)F)cc4)ccc3n2)cc1 (stereo not shown) [compound 65] | 240
33 | CC(C)CC(c1ccc(C(=O)NCCC(=O)O)cc1)n1ncc2cc(-c3ccc4ccccc4c3)ccc21 (stereo not shown) [compound 71] | 190
34 | Cc1cc(-c2ccc(C(C)(C)C)cc2)cc2cnn(C(CC(C)C)c3ccc(C(=O)NCCC(=O)O)nc3)c12 (stereo not shown) [compound 72] | > 2600
35 | CC(C)CC(c1ccc(C(=O)NCCC(=O)O)cc1)n1ncc2cc(-c3cc4ccccc4s3)ccc21 (stereo not shown) [compound 73] | 62
36 | CC(C)CC(c1ccc(C(=O)NCCC(=O)O)nc1)n1ncc2cc(-c3ccc(C(F)(F)F)cc3)ccc21 (stereo not shown) [compound 74] | 255
37 | CC(C)CC(c1ccc(C(=O)NCCC(=O)O)cc1)n1ncc2cc(-c3cc4ccccc4o3)ccc21 (stereo not shown) [compound 77] | 135
38 | CC(C)CC(c1ccc(C(=O)NCCC(=O)O)cc1)n1cc2cc(-c3ccc4cnn(C)c4c3)ccc2n1 (stereo not shown) [compound 80] | 340
39 | COc1ccc2cc(-c3ccc4nn(C(CC(C)C)c5ccc(C(=O)NCCC(=O)O)cc5)cc4c3)ccc2c1 (stereo not shown) [compound 82] | > 1300
40 | CCCCCCC(c1ccc(C(=O)NCCC(=O)O)cc1)n1cc2cc(-c3ccc(C(C)(C)C)cc3)ccc2n1 (stereo not shown) [compound 86] | 136
41 | CCCCCC(c1ccc(C(=O)NCCC(=O)O)cc1)n1ncc2cc(-c3ccc(C(C)(C)C)cc3)ccc21 (stereo not shown) [compound 88] | 255
42 | CCCCCC(c1ccc(C(=O)NCCC(=O)O)cc1)n1ncc2cc(-c3ccc(C(F)(F)F)cc3)ccc21 (stereo not shown) [compound 89] | 130
43 | CCCC(c1ccc(C(=O)NCCC(=O)O)cc1)n1cc2cc(-c3ccc(C(F)(F)F)cc3)ccc2n1 (stereo not shown) [compound 91] | 125
44 | O=C(O)CCNC(=O)c1ccc(C(CC2CCCCC2)n2cc3cc(-c4ccc(C(F)(F)F)cc4)ccc3n2)cc1 (stereo not shown) [compound 92] | 63
45 | CC(C)CC(c1ccc(C(=O)NCCC(=O)O)nc1)n1cc2cc(-c3cc4ccccc4s3)ccc2n1 (stereo not shown) [compound 96] | 92
46 | O=C(O)CCNC(=O)c1ccc(C(C2CCCCC2)n2cc3cc(-c4ccc(C(F)(F)F)cc4Cl)ccc3n2)cc1 (stereo not shown) [compound 98] | 83
